Results: patent US20040259823A1, “Cationic amphiphiles as transfection vehicles” (priority 2001, published 2004)

How the values were obtained:
Type in all cases: cell-based
HepG2 [1] = experiment: Transfection with pCMV GFP plasmid, % GFP positive cells by FACS (Table 3); details: HepG2, DOPE
Experimental: (§1) Transfections were carried out following standard protocols as is described in EP 0755924. In numerous publications variations of transfection protocols are given. A person acquainted with the field of non-viral transfections, in particular transfections using cationic amphiphiles will be able to use the cationic amphiphiles of the invention in transfection methods known per se. In standard experiments COS-7 cells are transfected with plasmid DNA containing the β-galactosidase reporter gene. Upon successful transfection the cell produces the enzyme β-galactosidase whose activity can be easily measured. Other plasmids comprising alternative reporter genes such as the gene encoding Green Fluorescent Protein or Chloroamphenicol Acetyl Transferase are suited as well. For analyzing stable transfection a plasmid containing the neomycin resistance gene can be used. Toxicity of the cationic amphiphiles towards the cells can be monitored qualitatively and quantitatively by visual inspection of the cells and by a protein determination.
(§2) A solution of cationic amphiphile in a 50/50 molar ratio with DOPE, DOPC or cholesterol in chloroform was dried under a stream of nitrogen. The residual solvent was removed under vacuum. The lipid film was hydrated in water at room temperature and sonicated to clarity in a bath sonicator immediately before use.
(§3) A 4.7 kb pair plasmid containing the GFP reporter gene under control of the cytomegalovirus immediate early gene promoter/enhancer (pCMV GFP).DNA was isolated from E. coli using a Qiagen Plasmid Kit (QIAGEN Inc, USA). The plasmid concentration was determined by measuring the absoption at 260 nm using the relation 1.0 OD=50 μg/ml. The OD260/OD280 value was 1.95.
(§4) COS-7 and HepG2 cells were cultured in Dulbecco's Modified Eagle Medium (DMEM Gibco The Netherlands) containing 7% of fetal calf serum, 2 mM L-Glutamine, 100 units/ml of penicilin and […] of streptomycin at 37° C. in CO2/air (1:19).
(§5) Cells (1×10^5 cells/well) were seeded in 12-well plates and were allowed to grow overnight.
(§6) The complex of cationic amphiphile/helper lipid (1:1) with pCMV GFP was prepared at the charge ratio 2.5:1 (15 nmol lipid and 1 μg DNA), in 100 μl 10 mM HEPES (pH=7.4, 150 mM NaCl). After 10-15 min incubation at room temperature, the resulting complex was diluted in 1 ml medium (DMEM) and 0.5 ml of the mixture was added to the cells and incubated for 4 h at 37° C. The transfection efficiency expressed as a percentage of GFP positive cells was measured by FACS (Fluorescence Activated Cell Soorting) 48 hours after the transfection.
(§7) Control wells underwent identical steps except that no cationic amphiphile was added.

HepG2 [2] = experiment: Cell survival after transfection (Table 3); details: HepG2, DOPE; further: tested at 6.8 µM
Experimental: as §1, §4, §5, §6, §7

COS-7 and HepG2 cells [3] = experiment: Transfection with pCMV GFP plasmid, % GFP positive cells by FACS (cell line not given); details: cell line and helper lipid not given
Experimental: as §1, §2, §3, §4, §5, §6, §7

COS-7 and HepG2 cells [4] = experiment: Cell survival after transfection (cell line not given); details: cell line and helper lipid not given; for % surv / % surv mean: Table 11
Experimental: as §1, §4, §5, §6, §7
Wherever % surv mean is given: tested at 6.8 µM.

Structure (SMILES) | % TE (COS-7 and HepG2 cells [3]; Table 1) | % TE (COS-7 and HepG2 cells [3]; Table 2) | % TE (COS-7 and HepG2 cells [3]; Table 7) | % TE (COS-7 and HepG2 cells [3]; Table 8) | % TE (COS-7 and HepG2 cells [3]; Table 9) | % TE (COS-7 and HepG2 cells [3]; Table 10) | % surv cells (COS-7 and HepG2 cells [4]; Table 1) | % surv cells (COS-7 and HepG2 cells [4]; Table 2) | % surv cells (COS-7 and HepG2 cells [4]; Table 7) | % surv cells (COS-7 and HepG2 cells [4]; Table 8) | % surv cells (COS-7 and HepG2 cells [4]; Table 9) | % surv cells (COS-7 and HepG2 cells [4]; Table 10) | further results
CCCCCCCC/C=C\CCCCCCCC[n+]1ccc(CCCCCCCCC)cc1.[Cl-] [SF42, 1-(9′-cis-octadecenyl)-4-nonyl-pyridinium Chloride] |  |  |  |  |  |  |  |  |  |  |  |  | % TE (HepG2 [1]; first value): 1.2%; % TE mean (HepG2 [1]): 0.925%; % TE (HepG2 [1]; second value): 0.65%; % surv cells (HepG2 [2]; first value): 40.1%; % surv cells Mean (HepG2 [2]): 33.785%; % surv cells (HepG2 [2]; second value): 27.47%; % TE (COS-7 and HepG2 cells [3]; Table 4): 5.05%; % TE (COS-7 and HepG2 cells [3]; Table 5): 0.81%; % TE (COS-7 and HepG2 cells [3]; Table 6): 5.13%; % TE (COS-7 and HepG2 cells [3]; Table 11, first value): 8.41%; % TE mean (COS-7 and HepG2 cells [3]; Table 11): 7.95%; % TE (COS-7 and HepG2 cells [3]; Table 11, second value): 7.49%; % surv cells (COS-7 and HepG2 cells [4]; Table 4): 70.14%; % surv cells (COS-7 and HepG2 cells [4]; Table 5): 75.02%; % surv cells (COS-7 and HepG2 cells [4]; Table 6): 93.49%; % surv (COS-7 and HepG2 cells [4]; first value): 86.37%; % surv mean (COS-7 and HepG2 cells [4]): 84.435%; % surv (COS-7 and HepG2 cells [4]; second value): 82.5%
CCCCCCCC/C=C\CCCCCCCC[n+]1ccc(CCCCCCC)cc1.[Cl-] [SF41, 1-(9′-cis-octadecenyl)-4-heptyl-pyridinium Chloride] |  |  |  |  |  |  |  |  |  |  |  |  | % TE (HepG2 [1]; first value): 0.07%; % TE mean (HepG2 [1]): 0.085%; % TE (HepG2 [1]; second value): 0.1%; % surv cells (HepG2 [2]; first value): 28.65%; % surv cells Mean (HepG2 [2]): 34.62%; % surv cells (HepG2 [2]; second value): 40.59%; % TE (COS-7 and HepG2 cells [3]; Table 4): 7.13%; % TE (COS-7 and HepG2 cells [3]; Table 6): 3.44%; % surv cells (COS-7 and HepG2 cells [4]; Table 4): 60.54%; % surv cells (COS-7 and HepG2 cells [4]; Table 6): 89.11%
CCCCCCCCCCCCCCCC[n+]1ccc(CCCCCCCCCCCCC)cc1.[Cl-] [SF36, 1-hexadecyl-4-tridecyl-pyridinium Chloride] | 1.39% | 15.06% | 25.36% | 4.46% | 2.73% | 1.75% | 76.77% | 36.8% | 84.28% | 64.88% | 63.36% | 37.75% | 
CCCCCCCCCCCCCc1cc[n+](CCCCCCCCCCCC)cc1.[Cl-] [SF34, 1-dodecyl-4-tridecyl-pyridinium Chloride] | 13.51% | 7.13% | 4.3% | 4.77% | 4.3% | 6.26% | 56.91% | 40.88% | 84.47% | 50.43% | 68.01% | 67.89% | 
CCCCCCCCCCCCCc1cc[n+](CCCCCCCCCC)cc1.[Cl-] [SF33, 1-decyl-4-tridecyl-pyridinium Chloride] | 3.07% | 9.71% | 0.05% | 3.82% | 3.85% | 5.77% | 78.47% | 39.82% | 87.79% | 75.05% | 68.99% | 69.94% | 
CCCCCCCC/C=C\CCCCCCCCC(CCCCCCCC/C=C\CCCCCCCC)c1cc[n+](C)cc1.[Cl-] [S2, reference compound] | 25.17% | 16.27% | 51.9% | 12.91% | 7.55% | 1.78% | 62.6% | 43.38% | 82.51% | 60.78% | 65.19% | 21.81% | % TE (COS-7 and HepG2 cells [3]; Table 11, first value): 41.2%; % TE mean (COS-7 and HepG2 cells [3]; Table 11): 42.8%; % TE (COS-7 and HepG2 cells [3]; Table 11, second value): 44.4%; % surv (COS-7 and HepG2 cells [4]; first value): 87.64%; % surv mean (COS-7 and HepG2 cells [4]): 87.24%; % surv (COS-7 and HepG2 cells [4]; second value): 86.84%
CCCCCCCCCCCCCc1cc[n+](CCCCCCCC)cc1.[Cl-] [SF32, 1-octyl-4-tridecyl-pyridinium Chloride] | 0.83% | 6.99% | 1.56% | 4.44% | 5.19% | 2.19% | 71.07% | 44.08% | 81.56% | 72.1% | 56.32% | 78.75% | 
CCCCCCCCCCCCCC[n+]1ccc(CCCCCCCCCCCCC)cc1.[Cl-] [SF35, 1-tetradecyl-4-tridecyl-pyridinium Chloride] | 18.92% | 10.48% | 6.4% | 3.23% | 3.32% | 3.23% | 65.49% | 42.35% | 82.58% | 72.37% | 68.67% | 70.39% | 
CCCCCCCC/C=C\CCCCCCCC[n+]1ccc(CCCCCCCCCCCCCCCCCCC)cc1.[Cl-] [SF14, 1-(9′-cis-octadecenyl)4nonadecyl-pyridinium Chloride] |  |  |  |  |  |  |  |  |  |  |  |  | % TE (COS-7 and HepG2 cells [3]; Table 4): 7.72%; % TE (COS-7 and HepG2 cells [3]; Table 5): 2.79%; % TE (COS-7 and HepG2 cells [3]; Table 6): 1.6%; % TE (COS-7 and HepG2 cells [3]; Table 11, first value): 2.41%; % TE mean (COS-7 and HepG2 cells [3]; Table 11): 3.1%; % TE (COS-7 and HepG2 cells [3]; Table 11, second value): 3.78%; % surv cells (COS-7 and HepG2 cells [4]; Table 4): 78.64%; % surv cells (COS-7 and HepG2 cells [4]; Table 5): 87.81%; % surv cells (COS-7 and HepG2 cells [4]; Table 6): 93.14%; % surv (COS-7 and HepG2 cells [4]; first value): 88.63%; % surv mean (COS-7 and HepG2 cells [4]): 87.805%; % surv (COS-7 and HepG2 cells [4]; second value): 86.98%
CCCCCCCC/C=C\CCCCCCCC[n+]1ccc(CCCCCCCCCCCCC)cc1.[Cl-] [SF30, 1-(9′-cis-octadecenyl)-4-tridecyl-pyridinium Chloride] | 9.73% | 16.61% | 13.61% | 3.09% | 13.61% | 5.32% | 78.45% | 46.45% | 84.28% | 75.35% | 84.28% | 60.16% | 
CCCCCCCCCCCCCCCCCC[n+]1ccc(CCCCCCCCCCCCC)cc1.[Cl-] [SF37, 1-stearyl-4-tridecyl-pyridinium Chloride] | 4.4% | 18.39% | 8.5% | 5.02% | 2.95% | 2.74% | 70.04% | 41.67% | 75.65% | 70.7% | 64.58% | 63.85% | 
